Measured values from PubChem BioAssay (NCI).
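These data come from cells grown in 96-well plates and exposed to compound for 48 hours at five concentrations. Definition used: TGI = concentration required for complete inhibition of growth.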

What was measured:
Test in all cases: DTP human tumour cell line panel, 48 h
SW-620 colon = test system: SW-620 colon
MDA-MB-435 = test system: MDA-MB-435
A549 NSCLC = test system: A549 NSCLC
COLO 205 colon = test system: COLO 205 colon
SNB-19 CNS = test system: SNB-19 CNS
SF-295 CNS = test system: SF-295 CNS
UACC-257 melanoma = test system: UACC-257 melanoma
OVCAR-3 ovarian = test system: OVCAR-3 ovarian
ACHN renal = test system: ACHN renal
K-562 leukemia = test system: K-562 leukemia
PC-3 prostate = test system: PC-3 prostate
HCC-2998 colon = test system: HCC-2998 colon
KM12 colon = test system: KM12 colon
SF-539 CNS = test system: SF-539 CNS
786-0 renal = test system: 786-0 renal
NCI-H23 lung = test system: NCI-H23 lung
CAKI-1 renal = test system: CAKI-1 renal
LOX IMVI melanoma = test system: LOX IMVI melanoma
EKVX NSCLC = test system: EKVX NSCLC
T-47D breast = test system: T-47D breast
TK-10 renal = test system: TK-10 renal
HCT-15 colon = test system: HCT-15 colon
HL-60(TB) leukemia = test system: HL-60(TB) leukemia
MDA-N = test system: MDA-N
BT-549 breast = test system: BT-549 breast
OVCAR-4 ovarian = test system: OVCAR-4 ovarian
HS 578T breast = test system: HS 578T breast
OVCAR-5 ovarian = test system: OVCAR-5 ovarian
SN12C renal = test system: SN12C renal
NCI-H226 lung = test system: NCI-H226 lung
HOP-92 NSCLC = test system: HOP-92 NSCLC
HCT-116 colon = test system: HCT-116 colon
MOLT-4 leukemia = test system: MOLT-4 leukemia
SNB-75 CNS = test system: SNB-75 CNS
MDA-MB-231 breast = test system: MDA-MB-231 breast
OVCAR-8 ovarian = test system: OVCAR-8 ovarian
SR leukemia = test system: SR leukemia
SK-MEL-2 melanoma = test system: SK-MEL-2 melanoma
UACC-62 melanoma = test system: UACC-62 melanoma
HOP-62 NSCLC = test system: HOP-62 NSCLC
SK-MEL-5 melanoma = test system: SK-MEL-5 melanoma
NCI/ADR-RES ovarian = test system: NCI/ADR-RES ovarian
NCI-H460 lung = test system: NCI-H460 lung
M14 melanoma = test system: M14 melanoma
CCRF-CEM leukemia = test system: CCRF-CEM leukemia
SK-OV-3 ovarian = test system: SK-OV-3 ovarian
DU-145 prostate = test system: DU-145 prostate
MCF7 breast = test system: MCF7 breast
HT29 colon = test system: HT29 colon
RPMI-8226 leukemia = test system: RPMI-8226 leukemia
MALME-3M melanoma = test system: MALME-3M melanoma
U251 CNS = test system: U251 CNS
SF-268 CNS = test system: SF-268 CNS
IGROV1 ovarian = test system: IGROV1 ovarian
RXF 393 renal = test system: RXF 393 renal
SK-MEL-28 melanoma = test system: SK-MEL-28 melanoma

Cc1ccc(S(=O)(=O)NC2C(=O)c3ccccc3C(=O)C2n2cnc3ccccc32)cc1 (stereo unspecified)
TGI (SW-620 colon): 94.4 µM | TGI (MDA-MB-435): 36.4 µM | TGI (A549 NSCLC): > 100 µM | TGI (COLO 205 colon): > 100 µM | TGI (SNB-19 CNS): 89.7 µM | TGI (SF-295 CNS): > 100 µM | TGI (UACC-257 melanoma): > 100 µM | TGI (OVCAR-3 ovarian): 15.4 µM | TGI (ACHN renal): > 100 µM | TGI (K-562 leukemia): > 100 µM | TGI (PC-3 prostate): 64.3 µM | TGI (HCC-2998 colon): 34.7 µM | TGI (KM12 colon): > 100 µM | TGI (SF-539 CNS): 62.6 µM | TGI (786-0 renal): > 100 µM | TGI (NCI-H23 lung): 58.6 µM | TGI (CAKI-1 renal): > 100 µM | TGI (LOX IMVI melanoma): > 100 µM | TGI (EKVX NSCLC): > 100 µM | TGI (T-47D breast): > 100 µM | TGI (TK-10 renal): 49.6 µM | TGI (HCT-15 colon): > 100 µM | TGI (HL-60(TB) leukemia): 40.8 µM | TGI (MDA-N): 45.5 µM | TGI (BT-549 breast): > 100 µM | TGI (OVCAR-4 ovarian): 26.1 µM | TGI (HS 578T breast): > 100 µM | TGI (OVCAR-5 ovarian): > 100 µM | TGI (SN12C renal): > 100 µM | TGI (NCI-H226 lung): > 100 µM | TGI (HOP-92 NSCLC): > 100 µM | TGI (HCT-116 colon): > 100 µM | TGI (MOLT-4 leukemia): 68.1 µM | TGI (SNB-75 CNS): > 100 µM | TGI (MDA-MB-231 breast): > 100 µM | TGI (OVCAR-8 ovarian): > 100 µM | TGI (SR leukemia): > 100 µM | TGI (SK-MEL-2 melanoma): 51.7 µM | TGI (UACC-62 melanoma): 74.4 µM | TGI (HOP-62 NSCLC): > 100 µM | TGI (SK-MEL-5 melanoma): 42.6 µM | TGI (NCI/ADR-RES ovarian): 73.6 µM | TGI (NCI-H460 lung): 84.3 µM | TGI (M14 melanoma): > 100 µM | TGI (CCRF-CEM leukemia): > 100 µM | TGI (SK-OV-3 ovarian): > 100 µM | TGI (DU-145 prostate): > 100 µM | TGI (MCF7 breast): > 100 µM | TGI (HT29 colon): > 100 µM | TGI (RPMI-8226 leukemia): > 100 µM | TGI (MALME-3M melanoma): 1.81 µM | TGI (U251 CNS): > 100 µM | TGI (SF-268 CNS): > 100 µM | TGI (IGROV1 ovarian): 75 µM | TGI (RXF 393 renal): 61.8 µM | TGI (SK-MEL-28 melanoma): > 100 µM
